Results as given in US11819514B2, “Use of oligosaccharide riclinoctaose in preparation of drug for treating and/or preventing ischemia-reperfusion injury (IRI)” (Nanjing Southern Element Biotechnology Co., Ltd., priority 2021, dated 2023).
Entries after “also recorded” stand apart in the source; their conditions may differ.

What was measured:
[1] = test system: male C57/BL6J mice; assay: HIRI mouse model: histological analysis of liver (H&E); format: in vivo
Description: (§1) The experimental animals were male C57/BL6J mice aged 6 to 8 weeks and weighed 22 g to 26 g. The mice were housed under standard experimental conditions with a 12-hour light-12-hour dark cycle with free access to water and food. The mice were anesthetized with isoflurane, the abdomen was operated on, and the blood supply to middle and left lobes of the liver was blocked with non-invasive hemostatic clips, resulting in 70% hepatic ischemia; after 30 min of ischemia, the clips were removed, and samples were collected to measure biochemical parameters after reperfusion for 6 h.
The mice were administered by intraperitoneal injection and randomly divided into four groups; a first group was a sham-operation group (sham), the animals in the sham-operation group received the same laparotomy without vascular clip occlusion; a second group was a model group (IR); a third group was a low-dosage group (LRO), with 20 mg/mL of the oligosaccharide riclinoctaose injected intraperitoneally about 4 h to 6 h before surgery; and a fourth group was a high-dosage group (HRO), with 40 mg/mL of the oligosaccharide riclinoctaose injected intraperitoneally about 4 h to 6 h before surgery. The oligosaccharide riclinoctaose drug was dissolved in a 0.9% normal saline. […]

[2] = test system: male C57/BL6J mice; assay: RIRI mouse model: plasma biochemical indicators (BUN, Creatinine, LDH); format: in vivo; conditions: i.p. 20 or 40 mg/mL 4 h to 6 h before surgery, 30 min ischemia, 24 h reperfusion
Source text: The experimental animals were male C57/BL6J mice aged 6 to 8 weeks and weighed 22 g to 26 g; the mice were anesthetized with isoflurane, and the abdomen was operated on, and after the righting reflex disappeared, the mice were placed in a prone position on a mouse dissection table and fixed; under sterile conditions, the abdominal cavity was opened along a 1.5 cm longitudinal incision on both dorsal sides, the muscles were bluntly separated, and the renal pedicles on both sides were exposed; the blood flow was blocked with a non-invasive vascular clip, and the kidneys turned from red to dark purple, indicating successful ischemia. After 30 min of ischemia, the arterial clips were released, and the abdominal cavity was closed after the kidneys were restored to perfusion; after 24 h, samples were collected to measure biochemical indicators, and an RIRI model was established. […]
Whole blood was collected, allowed to coagulate naturally at a room temperature, centrifuged at 2,000 r/min for 10 min, and a supernatant was collected for the determination of BUN, Creatinine, and LDH. The plasma BUN, Creatinine and LDH concentrations of mice in each group were analyzed according to instructions of the plasma BUN, Creatinine, and LDH detection kits, followed by operation steps in kit instructions, and finally concentrations were determined by colorimetry at a wavelength of 510 nm or 440 nm.
Comparisons between multiple groups were statistically analyzed using a One-way ANOVA statistical method. […]

[3] = test system: male C57/BL6J mice; assay: RIRI mouse model: histological analysis of kidney (H&E, PAS); format: in vivo; conditions: vs model group
Source text: The experimental animals were male C57/BL6J mice aged 6 to 8 weeks and weighed 22 g to 26 g; the mice were anesthetized with isoflurane, and the abdomen was operated on, and after the righting reflex disappeared, the mice were placed in a prone position on a mouse dissection table and fixed; under sterile conditions, the abdominal cavity was opened along a 1.5 cm longitudinal incision on both dorsal sides, the muscles were bluntly separated, and the renal pedicles on both sides were exposed; the blood flow was blocked with a non-invasive vascular clip, and the kidneys turned from red to dark purple, indicating successful ischemia. After 30 min of ischemia, the arterial clips were released, and the abdominal cavity was closed after the kidneys were restored to perfusion; after 24 h, samples were collected to measure biochemical indicators, and an RIRI model was established.
(§2) The mice were administered by intraperitoneal injection and randomly divided into four groups; a first group was a sham-operation group (sham), the animals in the sham-operation group received the same laparotomy without vascular clip occlusion; a second group was a model group (IR); a third group was a low-dosage group (LRO), with 20 mg/mL of the oligosaccharide riclinoctaose injected intraperitoneally about 4 h to 6 h before surgery; and a fourth group was a high-dosage group (HRO), with 40 mg/mL of the oligosaccharide riclinoctaose injected intraperitoneally about 4 h to 6 h before surgery. The oligosaccharide riclinoctaose drug was dissolved in a 0.9% normal saline.
Histomorphological changes in mouse kidneys were analyzed by H&E staining and PAS staining. The resected kidney tissue was immediately fixated with buffered 4% paraformaldehyde (in a PBS buffer) for histological analysis, embedded in paraffin, and sections were stained with by H&E or PAS. The necrosis and structural damages of nephrocytes were observed by a microscope.

[4] = test system: male C57/BL6J mice; assay: CIRI (MCAO) mouse model: neurofunctional scoring (mNSS, Longa); format: in vivo
Source text: The experimental animals were male C57/BL6J mice aged 6 to 8 weeks and weighed 22 g to 26 g. Mice were anesthetized with isoflurane and placed on a supine heating pad. The skin was disinfected with iodine and 75% ethanol. A midline neck incision is made to expose the carotid artery […]. An external carotid artery (ECA) was isolated and occluded with two knots. An internal carotid artery (ICA) was isolated, and the MCA and ICA were clamped with microvascular clips. A small hole was cut in the ECA between the knot and a bifurcation point. A silicone rubber-coated, 30-mm-long, and 0.11-mm-diameter middle cerebral artery occlusion (MCAO) tether was introduced into the ICA. The artery was opened while sutures were inserted to block the blood vessel. A third knot on the ICA was closed and the suture was secured in a proper place. The mouse abdominal cavity was sutured, and the mice were placed in a heated cage for 30 min, and the wound was closed using small suture clips. The third knot was loosened, the filament was removed, and reperfusion was conducted for 24 h. The skin was closed and the mice were returned to individual cages.
as §2, with “neck incision” for “laparotomy”, “suture blockage;” for “clip occlusion;”
Neurofunctional scoring: the neurobehavioral functions were assessed using mNSS and Longa scores. The mNSS assessed neurological deficits through motor, reflex, sensory, and balance tests. Scores ranged from 0 (indicating no neurological deficit) to 18 (indicating the most severely-injured animal). The Longa score was determined as follows: 0 points, no neurological deficit; 1 point, the animals were unable to fully extend the contralateral forelimbs; 2 points, there was a tail scratching phenomenon when walking (circling to the opposite side); 3 points, a standing posture was unstable, falling to the opposite side; and 4 points, there was no spontaneous walking and loss of consciousness. A score of 0 to 2 was classified as mild nerve injury, while a score of 3 to 4 was classified as severe nerve injury.
(§3) Comparisons between multiple groups were statistically analyzed using a One-way ANOVA statistical method. P<0.05 was considered to have a significant effect.

[5] = test system: intestinal microflora; conditions: cited from earlier work
[6] = cited from earlier work
[7] = test system: male C57/BL6J mice; assay: HIRI mouse model: serum enzyme activity assay (ALT, AST, LDH); format: in vivo; conditions: i.p. 20 mg/mL (LRO) and 40 mg/mL (HRO) 4 h to 6 h before surgery, 30 min ischemia, 6 h reperfusion, vs model group
Description: as §1, §2
Whole blood was collected, allowed to coagulate naturally at a room temperature, centrifuged at 2,000 r/min for 10 min, and a supernatant was collected for the determination of ALT, AST and LDH enzyme activities. The activities of AST, ALT and LDH were determined by an enzyme colorimetric quantitative analysis method, according to operation steps in kit instructions, and finally concentrations were determined by colorimetry at a wavelength of 505 nm or 440 nm.
as §3

[8] = i.p. injection before surgery, 30 min occlusion, 24 h reperfusion, vs model group

D-Glcp(4,6-pyr)-β-(1→3)-D-Glcp-β-(1→3)-D-Glcp-β-(1→6)-D-Glcp-β-(1→6)-D-Glcp-β-(1→4)-D-Glcp-β-(1→4)-D-Glcp-β-(1→3)-D-Galp [oligosaccharide riclinoctaose]
necrotic area of liver parenchyma cells (H&E staining) ([1]; i.p. 20 and 40 mg/mL before surgery, 6 h reperfusion): reduction of a necrotic area of liver parenchyma cells | liver tissue morphology / degree of damages (H&E staining) ([1]; treatment groups compared with sham-operation and model groups): the treatment groups and the sham-operation group have the closest tissue morphology, indicating a lesser degree of damages | plasma BUN [2]: significantly decreased | plasma Creatinine [2]: significantly decreased | plasma LDH [2]: significantly decreased | area of cell necrosis in kidney (H&E staining) [3]: the area of cell necrosis is reduced | brush border shedding of renal tubule cells and degree of cell necrosis (PAS staining) [3]: significantly reduced | infiltration of inflammatory factors in kidney (H&E staining) [3]: the infiltration of inflammatory factors is also reduced | neurobehaviour, low-dosage group (LRO) ([4]; 20 mg/mL i.p. 4 h to 6 h before surgery): cannot fully extend the contralateral forelimbs, the mice are not as severe as those in the model group | neurobehaviour, high-dosage group (HRO) ([4]; 40 mg/mL i.p. 4 h to 6 h before surgery): behave similarly to those in the sham-operation group (sham) without neurological deficits | neurological deficit by Longa score [4, 8]: the neurological deficit of mice can be significantly reduced | neurological deficit by mNSS [4, 8]: the neurological deficit of mice can be significantly reduced | effect on intestinal microflora as a prebiotic [5]: significantly improve the intestinal microflora | water solubility [6]: desirable water solubility | ALT activity in serum [7]: decrease the AST, ALT and LDH values in a dosage-dependent manner; also recorded: significant reduction of ALT, AST, LDH activities in serum | AST activity in serum [7]: decrease the AST, ALT and LDH values in a dosage-dependent manner; also recorded: significant reduction of ALT, AST, LDH activities in serum | LDH activity in serum [7]: decrease the AST, ALT and LDH values in a dosage-dependent manner; also recorded: significant reduction of ALT, AST, LDH activities in serum
